38 compounds from PubChem BioAssay AID488810 (Sanford-Burnham Center for Chemical Genomics, 2010) can be followed below.

SMILES strings stand for the structures. “And” between values parts separate entries of the source, which are not always exact repeats. Identical values can stand only once. The source made the active and inactive calls.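 The calls were made as follows: active = compounds with IC50 below 20 µM; inactive = the rest.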

Type-1 angiotensin II receptor (Homo sapiens), sequence (P30556 whole entry, looked up): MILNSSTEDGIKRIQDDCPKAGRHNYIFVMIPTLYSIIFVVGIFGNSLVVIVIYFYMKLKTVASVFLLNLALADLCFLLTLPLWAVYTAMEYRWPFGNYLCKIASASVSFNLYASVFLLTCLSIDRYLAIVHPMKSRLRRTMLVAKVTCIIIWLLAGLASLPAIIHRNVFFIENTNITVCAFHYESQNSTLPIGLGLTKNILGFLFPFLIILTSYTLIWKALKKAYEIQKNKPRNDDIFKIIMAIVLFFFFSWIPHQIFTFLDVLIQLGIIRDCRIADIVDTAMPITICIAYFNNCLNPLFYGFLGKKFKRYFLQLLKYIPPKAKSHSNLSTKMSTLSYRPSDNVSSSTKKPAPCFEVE

The experiment has as its target Type-1 angiotensin II receptor (Homo sapiens) (UniProt P30556). Nature of the experiment: AT1 receptor antagonists, beta-arrestin recruitment, SAR follow-up, selectivity assay for APJ antagonist project, cell-based, CHO-K1 PathHunter, luminescence (AID 488810).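 Also: agonist challenge with angiotensin II at 50 nM final near its EC80.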 The note with it: CHO-K1 AGTR1 PathHunter beta-arrestin, antagonist mode.
In the case of `COc1ccc(N=C2C(=O)Nc3ccc(C)c(Br)c32)cc1`, the IC50 was > 79 µM (inactive).
Take `Cc1ccc(NCC(O)c2ccccc2)cc1` (stereo not drawn): the IC50 was > 79 µM (inactive).
The figure for `C=CCOc1cccc(CSc2nccc(C)n2)c1` is > 79 µM (inactive); for `CC(C)N1CCc2c(sc(NC(=O)c3cc(-c4cccs4)nc4ccccc34)c2C(N)=O)C1` it is “inactive”.
In the case of `COc1ccc(C(=O)Oc2coc(CSc3ncccn3)cc2=O)cc1` it was > 79 µM (inactive); in that of `CCC1CCCCN1CC(=O)c1ccc(OC(F)F)cc1` (stereo not drawn), “inactive”; in that of `Cc1cccc(C2CC3(CC(C)(C)NC(=S)N3)Oc3cc(O)c(Cl)cc32)c1` (stereo not drawn), “inactive”.
On to `CC(C)(C)c1ccc(C(=O)Oc2coc(CSc3ncccn3)cc2=O)cc1`, for which the IC50 is > 79 µM (inactive).
In the case of `O=S(=O)(NN=Cc1ccc(-c2ccccc2Cl)o1)c1ccccc1` it was “inactive”; in that of `O=C(CNc1cccc(Cl)c1)c1ccc(Br)cc1`, 3.03 µM.
For the compound `Cc1ccc(C(=O)Oc2coc(CSc3ncccn3)cc2=O)cc1`, the IC50 is > 79 µM (inactive).
The figure for `O=C(Oc1coc(CSc2ncccn2)cc1=O)c1ccccc1` is > 79 µM (inactive); for `Cc1cccc2c1NC(=O)C2=Nc1ccc(Cl)cc1` it is 14.3 µM.
In the case of `COc1ccc(S(=O)(=O)NNc2nc(C)cc(C)n2)cc1[N+](=O)[O-]` it was “inactive”.
The figure for `Cc1ccc(C)c(NCC(O)c2ccc(Cl)cc2)c1` (stereo not drawn) is > 79 µM (inactive); for `Cc1cc(C)nc(SCc2cccc(O)c2)n1` it is > 79 µM (inactive); for `C=CCOc1cccc(CSc2ncccn2)c1` it is > 79 µM (inactive).
As for `O=C1Nc2ccccc2C1=Nc1ccc(Br)cc1`, the half-inhibitory concentration (IC50) was 6.68 µM.
For `Cc1ccc(OCC(=O)OCC(=O)c2cccc([N+](=O)[O-])c2)cc1C`, the IC50 is 15.8 µM.
In the case of `COc1cc(C(=O)Oc2coc(CSc3ncccn3)cc2=O)c([N+](=O)[O-])cc1OC`, the IC50 was > 79 µM (inactive).
For the compound `Cc1ccnc(SCc2cc(=O)c(OC(=O)c3ccc(F)cc3)co2)n1`, the IC50 is > 79 µM (inactive).
In the case of `Cc1ccc(N=C2C(=O)Nc3c(C)cccc32)cc1` it was “inactive”; in that of `CC1(C)CC2(CC(c3ccc(Cl)cc3)c3ccc(O)cc3O2)NC(=S)N1` (stereo not drawn), “inactive”; in that of `Cc1ccnc(SCc2cc(=O)c(OC(=O)c3cccs3)co2)n1`, > 79 µM (inactive).
In the case of `Cc1cc(C)nc(SCc2cc(=O)c(OC(=O)c3cc(Cl)ccc3[N+](=O)[O-])co2)n1` it was “inactive”; in that of `Cc1ccnc(SCc2cc(=O)c(OC(=O)c3cccc([N+](=O)[O-])c3)co2)n1`, > 79 µM (inactive).
For the compound `O=C(O)CN1C(=O)C(=O)c2ccccc21`, the IC50 was > 79 µM (inactive).
As to `Cc1ccnc(SCc2cc(=O)c(OC(=O)c3ccc(C(F)(F)F)cc3)co2)n1`, the IC50 was > 79 µM (inactive).
The figure for `COc1ccc(C(=O)CNc2cccc(F)c2)cc1` is 18.8 µM.
In the case of `O=C(Oc1coc(CSc2ncccn2)cc1=O)c1ccc(C(F)(F)F)cc1` it was > 79 µM (inactive); in that of `O=c1cc(CCl)occ1O`, > 79 µM (inactive); in that of `Cc1ccc(C(=O)CNc2cc(C)ccc2C)cc1`, 3.44 µM.
For `C=CCSC1=NC2(CC(c3ccc(C)cc3)c3c(C)cc(OC(C)=O)cc3O2)CC(C)(C)N1` (stereo not drawn), the IC50 was > 79 µM (inactive).
The entry for `Cc1ccnc(SCc2cc(=O)c(OC(=O)c3cc([N+](=O)[O-])ccc3Cl)co2)n1` is “inactive”; for `NC(=O)c1ccccc1NCC(=O)c1ccc(Cl)cc1` it is 3.24 µM; for `Cc1ccnc(SCc2cc(=O)c(OC(=O)c3ccccc3C)co2)n1` it is > 79 µM (inactive).
In the case of `N#Cc1ccc(C(=O)Oc2coc(CSc3ncccn3)cc2=O)cc1` it was > 79 µM (inactive); in that of `COc1ccccc1NCC(=O)c1ccc(Cl)cc1`, 1.93 µM and 2.19 µM.
